Measurements reported in US20220169628A1 (University of Florida Research Foundation, Incorporated, priority 2019, published 2022).
Like-named read-outs stand apart in the source and are kept apart here.

How the values were obtained:
RS4;11 cells = assay: Cell viability assay, MTS, 48 h, RS4;11; type: cell-based; settings: 48 hours, read-out: IC50 (48 hours) RS4;11
Procedure: (§1) Acute lymphoblastic leukemia cells (MOLT-4 and RS4; 11) or small cell lung cancer (NCI-H146 or simply H146) were incubated with increasing concentrations of Bcl-xL degraders for 48 h. Cell viability was measured by tetrazolium-based MTS assay.

MOLT-4 cells = assay: Cell viability assay, MTS, 48 h, MOLT-4; type: cell-based; settings: 48 hours, read-out: IC50 (48 hours) MOLT-4
Procedure: as §1

`Cc1ncsc1-c1ccc([C@H](C)NC(=O)[C@@H]2C[C@@H](O)CN2C(=O)[C@@H](NC(=O)C[C@H]2CC[C@H](CC(=O)N3CCC4(CCN(CC5(C)CCC(c6ccc(Cl)cc6)=C(CN6CCN(c7ccc(C(=O)NS(=O)(=O)c8ccc(N[C@H](CCN9CCOCC9)CSc9ccccc9)c(S(=O)(=O)C(F)(F)F)c8)cc7)CC6)C5)CC4)CC3)CC2)C(C)(C)C)cc1` (relative stereo) [degrader #39] showed an IC50 (RS4;11 cells) of under 50 nM and an IC50 (MOLT-4 cells) of 50 to 150 nM.

`Cc1ncsc1-c1ccc([C@H](C)NC(=O)[C@@H]2C[C@@H](O)CN2C(=O)[C@@H](NC(=O)CCCCCCCN2CCN(CC3(C)CCC(c4ccc(Cl)cc4)=C(CN4CCN(c5ccc(C(=O)NS(=O)(=O)c6ccc(N[C@H](CCN7CCOCC7)CSc7ccccc7)c(S(=O)(=O)C(F)(F)F)c6)cc5)CC4)C3)CC2)C(C)(C)C)cc1` (stereo partly shown) [Compound 53] gave an IC50 (RS4;11 cells; Homo sapiens, RS4-11, 48 h) of 50 to 150 nM and an IC50 (MOLT-4 cells; Homo sapiens, MOLT-4, 48 h) of 50 to 150 nM.

With `Cc1ncsc1-c1ccc([C@H](C)NC(=O)[C@@H]2C[C@@H](O)CN2C(=O)[C@@H](NC(=O)CCCCCN2CCN(CC3(C)CCC(c4ccc(Cl)cc4)=C(CN4CCN(c5ccc(C(=O)NS(=O)(=O)c6ccc(N[C@H](CCN7CCOCC7)CSc7ccccc7)c(S(=O)(=O)C(F)(F)F)c6)cc5)CC4)C3)CC2)C(C)(C)C)cc1` (stereo partly drawn) [Compound 55, N^1-((4′-chloro-4-methyl-6-((4-(4-(((4-(((R)-4-morpholino-1-(phenylthio)butan-2-yl)amino)-3-((trifluoromethyl)sulfonyl)phenyl)sulfonyl)carbamoyl)phenyl)piperazin-1-yl)methyl)-2,3,4,5-tetrahydro-[1,1′-biphenyl]-4-yl)methyl)-N^2—((S)-1-((2S,4R)-4-hydroxy-2-(((S)-1-(4-(4-methylthiazol-5-yl)phenyl)ethyl)carbamoyl)pyrrolidin-1-yl)-3,3-dimethyl-1-oxobutan-2-yl)dodecanediamide] the IC50 (RS4;11 cells; Homo sapiens, RS4-11, 48 h) was under 50 nM and the IC50 (MOLT-4 cells; Homo sapiens, MOLT-4, 48 h) was under 50 nM.

`Cc1ncsc1-c1ccc([C@H](C)NC(=O)[C@@H]2C[C@@H](O)CN2C(=O)[C@@H](NC(=O)CCCC(=O)N2CCN(CCN(C)CC3(C)CCC(c4ccc(Cl)cc4)=C(CN4CCN(c5ccc(C(=O)NS(=O)(=O)c6ccc(N[C@H](CCN7CCOCC7)CSc7ccccc7)c(S(=O)(=O)C(F)(F)F)c6)cc5)CC4)C3)CC2)C(C)(C)C)cc1` (stereo partly shown) [compound 57] showed an IC50 (RS4;11 cells; Homo sapiens, RS4-11, 48 h) of 150 to 500 nM and an IC50 (MOLT-4 cells; Homo sapiens, MOLT-4, 48 h) of 150 to 500 nM.

Work on `Cc1ncsc1-c1ccc([C@H](C)NC(=O)[C@@H]2C[C@@H](O)CN2C(=O)[C@@H](NC(=O)CCCCC(=O)N2CCN(CCN(C)CC3(C)CCC(c4ccc(Cl)cc4)=C(CN4CCN(c5ccc(C(=O)NS(=O)(=O)c6ccc(N[C@H](CCN7CCOCC7)CSc7ccccc7)c(S(=O)(=O)C(F)(F)F)c6)cc5)CC4)C3)CC2)C(C)(C)C)cc1` (stereo partly shown) [compound 58] yielded an IC50 (RS4;11 cells; Homo sapiens, RS4-11, 48 h) of 50 to 150 nM and an IC50 (MOLT-4 cells; Homo sapiens, MOLT-4, 48 h) of 50 to 150 nM.

In the case of `Cc1ncsc1-c1ccc([C@H](C)NC(=O)[C@@H]2C[C@@H](O)CN2C(=O)[C@@H](NC(=O)CCCCCC(=O)N2CCN(CCN(C)CC3(C)CCC(c4ccc(Cl)cc4)=C(CN4CCN(c5ccc(C(=O)NS(=O)(=O)c6ccc(N[C@H](CCN7CCOCC7)CSc7ccccc7)c(S(=O)(=O)C(F)(F)F)c6)cc5)CC4)C3)CC2)C(C)(C)C)cc1` (stereo partly shown) [compound 59], the IC50 (RS4;11 cells; Homo sapiens, RS4-11, 48 h) is reported as under 50 nM and the IC50 (MOLT-4 cells; Homo sapiens, MOLT-4, 48 h) is reported as under 50 nM.

For `Cc1ncsc1-c1ccc([C@H](C)NC(=O)[C@@H]2C[C@@H](O)CN2C(=O)[C@@H](NC(=O)CCCCCC(=O)NCCN(C)CC2(C)CCC(c3ccc(Cl)cc3)=C(CN3CCN(c4ccc(C(=O)NS(=O)(=O)c5ccc(N[C@H](CCN6CCOCC6)CSc6ccccc6)c(S(=O)(=O)C(F)(F)F)c5)cc4)CC3)C2)C(C)(C)C)cc1` (stereo partly shown) [compound 60], the IC50 (RS4;11 cells; Homo sapiens, RS4-11, 48 h) was 150 to 500 nM and the IC50 (MOLT-4 cells; Homo sapiens, MOLT-4, 48 h) was 150 to 500 nM.

In the case of `Cc1ncsc1-c1ccc([C@H](C)NC(=O)[C@@H]2C[C@@H](O)CN2C(=O)[C@@H](NC(=O)CCCCCCC(=O)NCCN(C)CC2(C)CCC(c3ccc(Cl)cc3)=C(CN3CCN(c4ccc(C(=O)NS(=O)(=O)c5ccc(N[C@H](CCN6CCOCC6)CSc6ccccc6)c(S(=O)(=O)C(F)(F)F)c5)cc4)CC3)C2)C(C)(C)C)cc1` (stereo partly drawn) [compound 61, N1-(2-(((4′-chloro-4-methyl-6-((4-(4-(((4-(((R)-4-morpholino-1-(phenylthio)butan-2-yl)amino)-3-((trifluoromethyl)sulfonyl)phenyl)sulfonyl)carbamoyl)phenyl)piperazin-1-yl)methyl)-2,3,4,5-tetrahydro-[1,1′-biphenyl]-4-yl)methyl)(methyl)amino)ethyl)-N8-((S)-1-((2S,4R)-4-hydroxy-2-(((S)-1-(4-(4-methylthiazol-5-yl)phenyl)ethyl)carbamoyl)pyrrolidin-1-yl)-3,3-dimethyl-1-oxobutan-2-yl)octanediamide], the IC50 (RS4;11 cells; Homo sapiens, RS4-11, 48 h) is reported as 50 to 150 nM and the IC50 (MOLT-4 cells; Homo sapiens, MOLT-4, 48 h) is reported as 150 to 500 nM.

Work on `Cc1ncsc1-c1ccc([C@H](C)NC(=O)[C@@H]2C[C@@H](O)CN2C(=O)[C@@H](NC(=O)CCCCCCCC(=O)NCCN(C)CC2(C)CCC(c3ccc(Cl)cc3)=C(CN3CCN(c4ccc(C(=O)NS(=O)(=O)c5ccc(N[C@H](CCN6CCOCC6)CSc6ccccc6)c(S(=O)(=O)C(F)(F)F)c5)cc4)CC3)C2)C(C)(C)C)cc1` (stereo partly shown) [compound 62] yielded an IC50 (RS4;11 cells; Homo sapiens, RS4-11, 48 h) of under 50 nM and an IC50 (MOLT-4 cells; Homo sapiens, MOLT-4, 48 h) of 150 to 500 nM.

Work on `Cc1ncsc1-c1ccc([C@H](C)NC(=O)[C@@H]2C[C@@H](O)CN2C(=O)[C@@H](NC(=O)CCCC(=O)N2CCN(C(=O)C3(C)CCC(c4ccc(Cl)cc4)=C(CN4CCN(c5ccc(C(=O)NS(=O)(=O)c6ccc(N[C@H](CCN7CCOCC7)CSc7ccccc7)c(S(=O)(=O)C(F)(F)F)c6)cc5)CC4)C3)CC2)C(C)(C)C)cc1` (stereo partly drawn) [compound 63, (2S,4R)-1-((2S)-2-(5-(4-(4′-chloro-4-methyl-6-((4-(4-(((4-(((R)-4-morpholino-1-(phenylthio)butan-2-yl)amino)-3-((trifluoromethyl)sulfonyl)phenyl)sulfonyl)carbamoyl)phenyl)piperazin-1-yl)methyl)-2,3,4,5-tetrahydro-[1,1′-biphenyl]-4-carbonyl)piperazin-1-yl)-5-oxopentanamido)-3,3-dimethylbutanoyl)-4-hydroxy-N—((S)-1-(4-(4-methylthiazol-5-yl)phenyl)ethyl)pyrrolidine-2-carboxamide] yielded an IC50 (RS4;11 cells; Homo sapiens, RS4-11, 48 h) of over 500 nM and an IC50 (MOLT-4 cells; Homo sapiens, MOLT-4, 48 h) of over 500 nM.

`Cc1ncsc1-c1ccc([C@H](C)NC(=O)[C@@H]2C[C@@H](O)CN2C(=O)[C@@H](NC(=O)CCCCCC(=O)N2CCN(C(=O)C3(C)CCC(c4ccc(Cl)cc4)=C(CN4CCN(c5ccc(C(=O)NS(=O)(=O)c6ccc(N[C@H](CCN7CCOCC7)CSc7ccccc7)c(S(=O)(=O)C(F)(F)F)c6)cc5)CC4)C3)CC2)C(C)(C)C)cc1` (stereo partly drawn) [compound 64, (2S,4R)-1-((2S)-2-(7-(4-(4′-chloro-4-methyl-6-((4-(4-(((4-(((R)-4-morpholino-1-(phenylthio)butan-2-yl)amino)-3-((trifluoromethyl)sulfonyl)phenyl)sulfonyl)carbamoyl)phenyl)piperazin-1-yl)methyl)-2,3,4,5-tetrahydro-[1,1′-biphenyl]-4-carbonyl)piperazin-1-yl)-7-oxoheptanamido)-3,3-dimethylbutanoyl)-4-hydroxy-N—((S)-1-(4-(4-methylthiazol-5-yl)phenyl)ethyl)pyrrolidine-2-carboxamide] was tested, and the IC50 (RS4;11 cells; Homo sapiens, RS4-11, 48 h) was 50 to 150 nM and the IC50 (MOLT-4 cells; Homo sapiens, MOLT-4, 48 h) was 50 to 150 nM.

`Cc1ncsc1-c1ccc([C@H](C)NC(=O)[C@@H]2C[C@@H](O)CN2C(=O)[C@@H](NC(=O)CCCCCCC(=O)N2CCN(C(=O)C3(C)CCC(c4ccc(Cl)cc4)=C(CN4CCN(c5ccc(C(=O)NS(=O)(=O)c6ccc(N[C@H](CCN7CCOCC7)CSc7ccccc7)c(S(=O)(=O)C(F)(F)F)c6)cc5)CC4)C3)CC2)C(C)(C)C)cc1` (stereo partly drawn) [compound 65, (2S,4R)-1-((2S)-2-(8-(4-(4′-chloro-4-methyl-6-((4-(4-(((4-(((R)-4-morpholino-1-(phenylthio)butan-2-yl)amino)-3-((trifluoromethyl)sulfonyl)phenyl)sulfonyl)carbamoyl)phenyl)piperazin-1-yl)methyl)-2,3,4,5-tetrahydro-[1,1′-biphenyl]-4-carbonyl)piperazin-1-yl)-8-oxooctanamido)-3,3-dimethylbutanoyl)-4-hydroxy-N—((S)-1-(4-(4-methylthiazol-5-yl)phenyl)ethyl)pyrrolidine-2-carboxamide] showed an IC50 (RS4;11 cells; Homo sapiens, RS4-11, 48 h) of under 50 nM and an IC50 (MOLT-4 cells; Homo sapiens, MOLT-4, 48 h) of under 50 nM.

With `Cc1ncsc1-c1ccc([C@H](C)NC(=O)[C@@H]2C[C@@H](O)CN2C(=O)[C@@H](NC(=O)CCCCCCCC(=O)N2CCN(C(=O)C3(C)CCC(c4ccc(Cl)cc4)=C(CN4CCN(c5ccc(C(=O)NS(=O)(=O)c6ccc(N[C@H](CCN7CCOCC7)CSc7ccccc7)c(S(=O)(=O)C(F)(F)F)c6)cc5)CC4)C3)CC2)C(C)(C)C)cc1` (stereo partly drawn) [compound 66, (2S,4R)-1-((2S)-2-(9-(4-(4′-chloro-4-methyl-6-((4-(4-(((4-(((R)-4-morpholino-1-(phenylthio)butan-2-yl)amino)-3-((trifluoromethyl)sulfonyl)phenyl)sulfonyl)carbamoyl)phenyl)piperazin-1-yl)methyl)-2,3,4,5-tetrahydro-[1,1′-biphenyl]-4-carbonyl)piperazin-1-yl)-9-oxononanamido)-3,3-dimethylbutanoyl)-4-hydroxy-N—((S)-1-(4-(4-methylthiazol-5-yl)phenyl)ethyl)pyrrolidine-2-carboxamide] the IC50 (RS4;11 cells; Homo sapiens, RS4-11, 48 h) was under 50 nM and the IC50 (MOLT-4 cells; Homo sapiens, MOLT-4, 48 h) was under 50 nM.

`Cc1ncsc1-c1ccc([C@H](C)NC(=O)[C@@H]2C[C@@H](O)CN2C(=O)[C@@H](NC(=O)CN2CCN(CC3(C)CCC(c4ccc(Cl)cc4)=C(CN4CCN(c5ccc(C(=O)NS(=O)(=O)c6ccc(N[C@H](CCN7CCOCC7)CSc7ccccc7)c(S(=O)(=O)C(F)(F)F)c6)cc5)CC4)C3)CC2)C(C)(C)C)cc1` (stereo partly drawn) [compound 67, (2S,4R)-1-((2S)-2-(2-(4-((4′-chloro-4-methyl-6-((4-(4-(((4-(((R)-4-morpholino-1-(phenylthio)butan-2-yl)amino)-3-((trifluoromethyl)sulfonyl)phenyl)sulfonyl)carbamoyl)phenyl)piperazin-1-yl)methyl)-2,3,4,5-tetrahydro-[1,1′-biphenyl]-4-yl)methyl)piperazin-1-yl)acetamido)-3,3-dimethylbutanoyl)-4-hydroxy-N—((S)-1-(4-(4-methylthiazol-5-yl)phenyl)ethyl)pyrrolidine-2-carboxamide] was tested, and the IC50 (RS4;11 cells; Homo sapiens, RS4-11, 48 h) was 50 to 150 nM and the IC50 (MOLT-4 cells; Homo sapiens, MOLT-4, 48 h) was 50 to 150 nM.
